In patent publication US20070149483A1, “Methods and compounds for modulating triglyceride and vldl secretion” (priority 2003, published 2007):
Marks after values point to notes of the source that are not given here.

Assays:
Type in all cases: cell-based, rat
[1] = system: McA-RH7777 cells stably expressing human apoB100; assay: Competitive ELISA of apoB100 protein in medium; settings: after 16-h incubation, n=3
Description: (§1) Cell Culture and Fatty Acid Treatments—Transfected McA-RH7777 cells stably expressing human apoB100 (McLeod et al., 1994, J. Biol. Chem. 269, 2852-2862) were cultured in Dulbecco's modified Eagle's medium (DMEM) containing 10% fetal bovine serum (FBS), 10% horse serum and 200 μg/ml G418. Routinely, the cells were incubated with 0.4 mM fatty acids for 16-18 h in the presence of 20% FBS prior to experiments.
Competitive Enzyme Linked Immunosorbent Assay (ELISA)—The ELISA plates were coated with human LDL (1 mg/ml in PBS, 16 h, 4° C.), blocked with skim milk (5% in PBS, 2 h, 37° C.), and washed three times with PBS containing 0.02% Tween-20. The plates were incubated with apoB monoclonal antibody 1D1 (1:64,000, 16 h, 4° C.) in the presence of serial diluted concentrations of human LDL or medium samples. The plates were washed and incubated with horseradish peroxidase-linked anti-mouse IgG antibody (1:10,000, 2 h, 37° C.), followed by addition of the liquid substrate system for ELISA (3,3′,5,5′-tetramethyl-benzidine). The reaction was quantified colorimetrically by spectrophotometer reading at OD665.

[2] = system: McA-RH7777 cells stably expressing human apoB100; assay: Synthesis and secretion of [3H]glycerol-labelled TG and PC
Description: as §1
Other Assays—The TG transfer activity of MTP was determined according to published method (Wetterau et al., 1992, Science 258, 999-1001) with modifications (Wang et al., 1999). The phosphatidate phosphohydrolase activity was determined by an established method (Jamal et al., 1991, J. Biol. Chem. 266, 2988-2996). Lipid extraction and analysis by TLC was performed as previously described (Tran et al., 2000). Protein was determined using the BCA™ protein assay kit (Pierce).

[3] = system: McA-RH7777 cells stably expressing human apoB100; assay: Pulse-chase (1 h pulse, up to 3 h chase) of apoB100 and apoA-I secretion efficiency
Description: The cells were then incubated with chase medium for 15, 30 and 45 min. At the end of each chase time, the medium was collected and subjected to cumulative rate flotation centrifugation (Wang et al., 1999) to resolve apoB100-VLDL1 (Sf>100) and apoB100-VLDL2 (Sf 20-100) from other lipoproteins (i.e. IDL, LDL and HDL). The ^35S-apoB100 in each fraction was recovered by immunoprecipitation. Also, at the end of each chase time, the radiolabeled cells were harvested in 2 ml of ice-cold homogenization buffer (10 mM Tris-HCl, pH 7.4, 250 mM sucrose, 5 mM EDTA, and serine/cysteine protease inhibitor mixture), mixed with two 100-mm dishes of unlabeled cells, homogenized by passing ten times through a ball-bearing homogenizer, and subjected to subcellular fractionation and carbonate-treatment as described below.
Oleate and EPA were present in both pulse and chase media. The [^35S]-apoB100 from total cell lysates (FIG. 2A) or conditioned media (FIG. 2B) was immunoprecipitated, resolved by SDS-PAGE, and visualized by fluorography. Radioactivity associated with [^35S]-apoB100 was quantified. As shown in the top panels of FIG. 2A to 2B, the data is expressed as absolute amount of radioactivity associated with [^35S]-apoB100 at the end of 1-h pulse. As shown in the […] panels of FIG. 2A to 2B, the data is expressed as percent of the initial counts associated with ^35S-apoB100 at the end of 1-h pulse. […] The experiments were repeated and similar results were obtained.
It has been shown previously that VLDL, particles carry >80% of total TG but <10% of total apoB100 secreted from oleate-treated McA-RH777 cells (Wang et al., 1999, J. Biol. Chem. 274: 27793-27800). Thus the possibility was considered that the above pulse (30-min)-chase(60 min) experiment might fail to detect decreased secretion and increased post-translational degradation of apoB100 because n-3 fatty acid treatment was reported to selectively decrease apoB100 in VLDL fractions (Fisher and Ginsberg, 2002, J. Biol. Chem. 277: 17377-17380). In the next set of experiments, the pulse-labelling period was extended to 1 h to maximize [^35S]-labelling of apoB100 and to allow examination of potential posttranslational degradation. […] The high labelling of apoB100 at the end of 1-h pulse may reflect increased intracellular accumulation of newly synthesized apoB100 and/or impaired secretion. […] The secretion efficiency, which measures the proportion of total metabolically labelled [^35S]-apoB100 secreted at the end of chase was decreased from 60% to 40% in EPA-treated cells compared to OA-treated cells (FIG. 2B, bottom). […]

[4] = system: McA-RH7777 cells stably expressing human apoB100; assay: Tandem mass spectrometry of PC and PE in membranes of subcellular organelles; settings: for PC content, Total / PC content, membranes of ER / PC content, membranes of cis/medial Golgi / PC content, membranes of distal Golgi / PE content, Total / PE content, membranes of ER / PE content, membranes of cis/medial Golgi / PE content, membranes of distal Golgi: control cells set as 100
Description: Subcellular Fractionation—Three subcellular fractions (i.e., ER, fractions 1 through 3; cis/medial Golgi, fractions 4 through 8; distal Golgi, fractions 9 through 15) were obtained from the cell lysates using Nycodenz gradient centrifugation (Hammond and Helenius, 1994, J. Cell Biol. 126, 41-52; Rickwood et al., 1982, Anal. Biochem. 123, 23-31) of the post-nuclear supernatant as previously described (Tran et al., 2002). […] The membrane and lumen preparations from ER (Nycodenz fractions 1 through 3), cis/medial Golgi (fractions 4 through 8), and distal Golgi (fractions 9 through 15) were derived from cells pooled from eight 100-mm dishes. Lipids were extracted from the samples with chloroform/methanol/acetic acid/saturated NaCl/H2O (4:2:0.1:1:2, by volume) in the presence of 230 pmol dimirystoyl (14:0-14:0) PC and 110 pmol dipalmitoyl (16:0-16:0) PE as internal standards. Aliquots of lipid extracts were applied to tandem mass spectrometry, and the molecular species (i.e. fatty acid composition) of PC and PE was determined by daughter ion analysis in the negative ion mode as previously described (Tran et al., 2002; DeLong et al., 1999, J. Biol. Chem. 274, 29683-29688). The integrated area under the peak of each molecular species was quantified by comparing with those of internal standards.

[5] = end of 2-h labelling with [^3H]glycerol, means ± SD of triplicate

| SMILES | amount of apoB100 protein accumulated in the medium [1] | [^3H]PC Cell [2, 5] | [^3H]PC Medium [2, 5] | [^3H]TG Medium [2, 5] | amount of [^35S] incorporated into apoB100 at the end of 1-h pulse [3] | PC content, Total [4] | PC content, membranes of ER [4] | PC content, membranes of cis/medial Golgi [4] | PC content, membranes of distal Golgi [4] | PE content, Total [4] | PE content, membranes of ER [4] | PE content, membranes of cis/medial Golgi [4] | PE content, membranes of distal Golgi [4] | increase in PE mass in the ER ([4]; vs untreated control) | increase in total PE mass ([4]; vs untreated control) | other results |
| --- | --- | --- | --- | --- | --- | --- | --- | --- | --- | --- | --- | --- | --- | --- | --- | --- |
| CC/C=C\C/C=C\C/C=C\C/C=C\C/C=C\CCCC(=O)O [EPA, eicosapentaenoic acid] | 2.5 ± 0.43 µg/mL | 15.80 ± 0.44 cpm × 10^−3/dish | 3.86 ± 0.57 cpm × 10^−3/dish | 7.18 ± 0.96^b cpm × 10^−3/dish | 9.43×10^4 cpm/dish | (92)* % of control | (108)* % of control | (70)* % of control | (94)* % of control | (185)* % of control | (216) % of control | (127) % of control | (270)* % of control | 116% | 85% | [^3H]TG Cell [2, 5]: 40.84 ± 0.70^b cpm × 10^−3/dish; reduction in secretion of [^3H]glycerol-labelled TG ([2]; vs oleate-treated cells): 50%; [^35S] incorporated into apoB100 at the end of 1-h pulse, greater than in oleate-treated cells [3]: ~40%; secretion efficiency (proportion of total metabolically labelled [^35S]-apoB100 secreted at the end of chase) ([3]; 3-h chase): 40%; increase in PE mass in the distal Golgi ([4]; vs untreated control): 170% |
| CCCCCCCC/C=C\CCCCCCCC(=O)O [Oleate, oleic acid] | 2.74 ± 0.48 µg/mL | 15.00 ± 0.23 cpm × 10^−3/dish | 4.10 ± 0.12 cpm × 10^−3/dish | 12.87 ± 1.59 cpm × 10^−3/dish | 6.40×10^4 cpm/dish | (156) % of control | (182) % of control | (107) % of control | (173) % of control | (129) % of control | (172) % of control | (112) % of control | (106) % of control | 72% | 29% | increase in PC mass in the ER ([4]; vs untreated control): 82%; increase in PC mass in the distal Golgi ([4]; vs untreated control): 73%; increase in total PC mass associated with intracellular microsomes ([4]; vs untreated control): 56% |
